In brackets after ≈: the same amount, converted by molar mass. Activity calls are given as the source filed them. The rule behind the calls is not given here.
Legend:
[1] = test system: Staphylococcus aureus; assay: Antibacterial activity against methicillin-resistant Staphylococcus aureus N315 incubated for 24 hrs by two fold serial dilution method; type: functional; conditions: N315, 24 h
[2] = test system: Enterococcus faecalis; assay: Antibacterial activity against Enterococcus faecalis incubated for 24 hrs by two fold serial dilution method; type: functional
[3] = test system: Staphylococcus aureus; assay: Antibacterial activity against Staphylococcus aureus ATCC 29213 incubated for 24 hrs by two fold serial dilution method; type: functional; conditions: ATCC 29213, 24 h
[4] = test system: Klebsiella pneumoniae; assay: Antibacterial activity against Klebsiella pneumoniae incubated for 24 hrs by two fold serial dilution method; type: functional
[5] = test system: Escherichia coli; assay: Antibacterial activity against Escherichia coli incubated for 24 hrs by two fold serial dilution method; type: functional
[6] = test system: Pseudomonas aeruginosa; assay: Antibacterial activity against Pseudomonas aeruginosa incubated for 24 hrs by two fold serial dilution method; type: functional
[7] = test system: Acinetobacter baumannii; assay: Antibacterial activity against Acinetobacter baumannii incubated for 24 hrs by two fold serial dilution method; type: functional
[8] = test system: Klebsiella pneumoniae; assay: Potency index, ratio of MIC for clinafloxacin to test compound MIC for antibacterial activity against Klebsiella pneumoniae; type: functional
[9] = test system: Acinetobacter baumannii; assay: Potency index, ratio of MIC for norfloxacin to test compound MIC for antibacterial activity against Acinetobacter baumannii; type: functional
[10] = molecular target: T1, Albumin (Homo sapiens, UniProt P02768); assay: Binding affinity to HSA assessed as quenching constant at 290 K by spectrofluorimetric analysis; type: ADME; conditions: isolated protein
[11] = molecular target: T1, Albumin; assay: Binding affinity to HSA assessed as quenching constant at 300 K by spectrofluorimetric analysis; type: ADME; conditions: isolated protein
[12] = test system: Staphylococcus aureus; assay: Antibacterial activity against methicillin-resistant Staphylococcus aureus N315 at 0.5 times MIC measured over 6 passages; type: functional, organism-based
[13] = test system: DNA; assay: Binding affinity to methicillin-resistant Staphylococcus aureus N315 DNA assessed as hyperchromic effect by neutral red dye based UV-visible spectrophotometric method; type: nucleic-acid assay; conditions: Staphylococcus aureus subsp. aureus N315
[14] = test system: DNA; assay: Binding affinity to methicillin-resistant Staphylococcus aureus DNA assessed as reduction in neutral red binding to DNA by UV-visible spectrophotometric method; type: nucleic-acid assay
[15] = test system: Staphylococcus aureus; assay: Induction of membrane permeabilization in methicillin-resistant Staphylococcus aureus N315 assessed as increase in fluorescence intensity at 12 times MIC measured within 70 mins by propidium iodide staining based fluorescence assay; type: functional, organism-based
[16] = test system: Staphylococcus aureus; assay: Antibacterial activity against methicillin-resistant Staphylococcus aureus N315 assessed as reduction in MecA gene expression incubated for 3 hrs by qRT-PCR analysis; type: functional, organism-based
[17] = test system: Staphylococcus aureus; assay: Antibacterial activity against methicillin-resistant Staphylococcus aureus N315 assessed as reduction in FemB gene expression incubated for 3 hrs by qRT-PCR analysis; type: functional, organism-based
[18] = test system: Staphylococcus aureus; assay: Antibacterial activity against methicillin-resistant Staphylococcus aureus N315 assessed as reduction in GyrB gene expression incubated for 3 hrs by qRT-PCR analysis; type: functional, organism-based
[19] = molecular target: T1, Albumin; assay: Binding affinity to HSA assessed as Stem-Volmer quenching constant at 290 K by spectrofluorimetric analysis; type: ADME; conditions: isolated protein
[20] = molecular target: T1, Albumin; assay: Binding affinity to HSA assessed as Stem-Volmer quenching constant at 300 K by spectrofluorimetric analysis; type: ADME; conditions: isolated protein
[21] = molecular target: T1, Albumin; assay: Binding affinity to HSA assessed as Stem-Volmer quenching constant at 313 K by spectrofluorimetric analysis; type: ADME; conditions: isolated protein
[22] = molecular target: T1, Albumin; assay: Binding affinity to HSA assessed as quenching constant at 313 K by spectrofluorimetric analysis; type: ADME; conditions: isolated protein
[23] = molecular target: T1, Albumin; assay: Binding affinity to HSA assessed as effective quenching constant at 290 K by spectrofluorimetric based Stern-Volmer method; type: ADME; conditions: isolated protein
[24] = molecular target: T1, Albumin; assay: Binding affinity to HSA assessed as effective quenching constant at 300 K by spectrofluorimetric based Stern-Volmer method; type: ADME; conditions: isolated protein
[25] = molecular target: T1, Albumin; assay: Binding affinity to HSA assessed as effective quenching constant at 313 K by spectrofluorimetric based Stern-Volmer method; type: ADME; conditions: isolated protein
[26] = molecular target: T1, Albumin; assay: Binding affinity to HSA assessed as binding constant at 290 K by spectrofluorimetric based Scatchard method; type: ADME; conditions: isolated protein
[27] = molecular target: T1, Albumin; assay: Binding affinity to HSA assessed as binding constant at 300 K by spectrofluorimetric based Scatchard method; type: ADME; conditions: isolated protein
[28] = molecular target: T1, Albumin; assay: Binding affinity to HSA assessed as binding constant at 313 K by spectrofluorimetric based Scatchard method; type: ADME; conditions: isolated protein
[29] = molecular target: T1, Albumin; assay: Binding affinity to HSA assessed as binding constant at 298K by spectrofluorimetric based Scatchard method; type: ADME; conditions: isolated protein
[30] = molecular target: T1, Albumin; assay: Binding affinity to HSA assessed as binding constant at 298K in presence of Mg2+ ion by spectrofluorimetric based Scatchard method; type: ADME; conditions: isolated protein
[31] = molecular target: T1, Albumin; assay: Binding affinity to HSA assessed as binding constant at 298K in presence of Ca2+ ion by spectrofluorimetric based Scatchard method; type: ADME; conditions: isolated protein
[32] = molecular target: T1, Albumin; assay: Ratio of binding affinity for HSA assessed as binding constant at 298K in presence of Mg2+ ion to binding affinity to HSA at 298K by spectrofluorimetric based Scatchard method; type: ADME; conditions: isolated protein
[33] = molecular target: T1, Albumin; assay: Ratio of binding affinity for HSA assessed as binding constant at 298K in presence of Ca2+ ion to binding affinity to HSA at 298K by spectrofluorimetric based Scatchard method; type: ADME; conditions: isolated protein
[34] = Cytotoxicity activity against human A549 cells assessed as cell viability at 2 to 64 ug/ml incubated for 24 hrs by MTT assay relative to control; type: cell-based; conditions: read-out: Activity
[35] = Cytotoxicity activity against human BEAS2B cells assessed as cell viability at 64 ug/ml incubated for 24 hrs by MTT assay relative to control; type: cell-based; conditions: BEAS-2B cells, read-out: Activity
[36] = test system: DNA; assay: Binding affinity to methicillin-resistant Staphylococcus aureus N315 DNA by neutral red dye based UV-visible spectrophotometric method; type: nucleic-acid assay; conditions: Staphylococcus aureus subsp. aureus N315

T1 sequence (P02768 whole entry): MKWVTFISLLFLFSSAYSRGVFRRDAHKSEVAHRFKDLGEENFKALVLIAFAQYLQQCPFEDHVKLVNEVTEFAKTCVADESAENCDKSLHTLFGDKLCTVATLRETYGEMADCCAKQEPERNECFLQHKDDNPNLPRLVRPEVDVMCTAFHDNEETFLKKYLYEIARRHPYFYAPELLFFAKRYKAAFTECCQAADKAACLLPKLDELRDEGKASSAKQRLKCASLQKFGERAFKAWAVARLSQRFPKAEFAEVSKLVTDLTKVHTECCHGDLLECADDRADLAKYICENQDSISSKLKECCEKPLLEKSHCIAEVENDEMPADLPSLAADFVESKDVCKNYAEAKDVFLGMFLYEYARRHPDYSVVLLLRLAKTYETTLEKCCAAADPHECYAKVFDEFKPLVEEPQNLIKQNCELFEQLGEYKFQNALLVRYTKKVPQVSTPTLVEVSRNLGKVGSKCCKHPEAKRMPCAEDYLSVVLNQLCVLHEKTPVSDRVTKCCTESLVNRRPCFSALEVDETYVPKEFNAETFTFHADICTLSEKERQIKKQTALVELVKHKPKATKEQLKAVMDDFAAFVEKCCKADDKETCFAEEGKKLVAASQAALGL

Question: For `CC(=O)/C(=C/c1cn(CC(=O)N(C(C)C)C(C)C)c2ccccc12)n1cc([N+](=O)[O-])nc1C`, which MIC [1] is on record?
Answer: 1 µg/mL (≈ 2.21 µM)

Question: And the MIC [2]?
Answer: 64 µg/mL (≈ 142 µM)

Question: What about the MIC [3] of the same compound?
Answer: 512 µg/mL (≈ 1130 µM)

Question: What about the MIC [4] of the same compound?
Answer: 16 µg/mL (≈ 35.4 µM)

Question: And the MIC [5]?
Answer: 64 µg/mL (≈ 142 µM)

Question: What about the MIC [6] of the same compound?
Answer: 512 µg/mL (≈ 1130 µM)

Question: And the MIC [7]?
Answer: 512 µg/mL (≈ 1130 µM)

Question: With `CCN(CC)C(=O)Cn1cc(/C=C(/C(C)=O)n2cc([N+](=O)[O-])nc2C)c2ccccc21` as the compound, how does the MIC [1] read?
Answer: 16 µg/mL (≈ 37.8 µM)

Question: And the MIC [2]?
Answer: 64 µg/mL (≈ 151 µM)

Question: What about the MIC [3] of the same compound?
Answer: 128 µg/mL (≈ 302 µM)

Question: And the MIC [4]?
Answer: 8 µg/mL (≈ 18.9 µM)

Question: And the MIC [5]?
Answer: 16 µg/mL (≈ 37.8 µM)

Question: What about the MIC [6] of the same compound?
Answer: 16 µg/mL (≈ 37.8 µM)

Question: And the MIC [7]?
Answer: 1 µg/mL (≈ 2.36 µM)

Question: What about the Ratio [8] of the same compound?
Answer: 4

Question: What about the Ratio [9] of the same compound?
Answer: 8

Question: With `CC(=O)/C(=C/c1cn(CC(=O)N2CCOCC2)c2ccccc12)n1cc([N+](=O)[O-])nc1C` as the compound, how does the MIC [1] read?
Answer: 2 µg/mL (≈ 4.57 µM)

Question: What about the MIC [2] of the same compound?
Answer: 32 µg/mL (≈ 73.2 µM)

Question: What about the MIC [3] of the same compound?
Answer: 64 µg/mL (≈ 146 µM)

Question: What about the MIC [4] of the same compound?
Answer: 16 µg/mL (≈ 36.6 µM)

Question: What about the MIC [5] of the same compound?
Answer: 32 µg/mL (≈ 73.2 µM)

Question: And the MIC [6]?
Answer: 128 µg/mL (≈ 293 µM)

Question: What about the MIC [7] of the same compound?
Answer: 256 µg/mL (≈ 585 µM)

Question: For `CCN(CC)C(=O)Cn1cc(/C=C(/C(C)=O)n2cc([N+](=O)[O-])nc2C)c2ccc(Cl)cc21`, which MIC [1] is on record?
Answer: 512 µg/mL (≈ 1120 µM)

Question: What about the MIC [2] of the same compound?
Answer: 1 µg/mL (≈ 2.18 µM)

Question: And the MIC [3]?
Answer: 512 µg/mL (≈ 1120 µM)

Question: What about the MIC [4] of the same compound?
Answer: 512 µg/mL (≈ 1120 µM)

Question: What about the MIC [5] of the same compound?
Answer: 512 µg/mL (≈ 1120 µM)

Question: What about the MIC [6] of the same compound?
Answer: 128 µg/mL (≈ 280 µM)

Question: And the MIC [7]?
Answer: 512 µg/mL (≈ 1120 µM)

Question: Which results are given for `CC(=O)/C(=C/c1cn(CC(=O)N2CCCCC2)c2ccccc12)n1cc([N+](=O)[O-])nc1C`?
Answer: Kq [10]: 1.27 ×10¹³ L/mol/s; Kq [11]: 1.19 ×10¹³ L/mol/s; MIC [1]: 1 µg/mL (≈ 2.3 µM); MIC [2]: 32 µg/mL (≈ 73.5 µM); MIC [3]: 128 µg/mL (≈ 294 µM); MIC [4]: 8 µg/mL (≈ 18.4 µM); MIC [5]: 1 µg/mL (≈ 2.3 µM); MIC [6]: 128 µg/mL (≈ 294 µM); MIC [7]: 128 µg/mL (≈ 294 µM); Activity [12]: Active; Activity [13]: Active; Activity [14]: Active; Activity [15]: Active; Activity [16]: Active; Activity [17]: Active; Activity [18]: Active; KSV [19]: 8.14 ×10⁴ L/mol; KSV [20]: 7.63 ×10⁴ L/mol; KSV [21]: 6.35 ×10⁴ L/mol; Kq [22]: 0.99 ×10¹³ L/mol/s; Kq [23]: 132000 M⁻¹; Kq [24]: 79800 M⁻¹; Kq [25]: 56900 M⁻¹; Kb [26]: 5.88 ×10⁴ L/mol; Kb [27]: 5.73 ×10⁴ L/mol; Kb [28]: 4.95 ×10⁴ L/mol; Kb [29]: 4.624 ×10⁴ L/mol; Kb [30]: 4.766 ×10⁴ L/mol; Kb [31]: 5.729 ×10⁴ L/mol; Ratio [32]: 103%; Ratio [33]: 124%; viability at 24 h [34]: > 75%; viability at 24 h, 64 ug/ml [35]: 74%; Activity [36]: Dose-dependent effect; K [36]: 3.45 ×10⁵ L/mol
